A word on the IC50: it is the concentration needed to halve the response being measured. As a reminder, the inhibition is the share of the control response that was lost under treatment. A word on the half-life: it is how long it takes for the measured level to halve.

Data set [1] concerns the target T1, Steroid 17-alpha-hydroxylase/17,20 lyase (Homo sapiens, UniProt P05093).
T1 sequence (P05093 whole entry): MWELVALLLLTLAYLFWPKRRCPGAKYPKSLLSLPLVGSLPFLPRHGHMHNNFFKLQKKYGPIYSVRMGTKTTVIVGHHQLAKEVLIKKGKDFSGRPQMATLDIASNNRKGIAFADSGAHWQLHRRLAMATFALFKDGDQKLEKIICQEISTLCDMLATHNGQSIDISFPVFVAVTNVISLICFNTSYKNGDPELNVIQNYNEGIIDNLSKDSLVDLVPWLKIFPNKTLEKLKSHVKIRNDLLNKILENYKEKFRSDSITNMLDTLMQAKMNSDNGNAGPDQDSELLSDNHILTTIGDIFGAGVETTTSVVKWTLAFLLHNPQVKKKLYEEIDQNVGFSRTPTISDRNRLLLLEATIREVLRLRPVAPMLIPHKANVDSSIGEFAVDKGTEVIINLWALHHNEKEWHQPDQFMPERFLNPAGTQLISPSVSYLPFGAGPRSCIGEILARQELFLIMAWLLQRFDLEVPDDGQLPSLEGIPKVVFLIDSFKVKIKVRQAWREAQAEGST
Nature of the data set: Inhibition of CYP17 in human testicular microsomes using 17alpha-hydroxypregnenolone as substrate assessed as decrease in DHEA levels after 90 mins by ELISA. Further details: species or system Testis. A general note: An ELISA detects its analyte on a solid surface through an enzyme-linked reagent.

Data set [2] deals with T1, Steroid 17-alpha-hydroxylase/17,20 lyase. Kind of data set: Inhibition of CYP17 in human testicular microsomes using 17alpha-hydroxypregnenolone as substrate assessed as decrease in DHEA levels at 10 nM after 90 mins by ELISA relative to control. Also on record: species or system Testis. As to conditions: 1.5 h.
The target of data set [3] is T2, CYP21 (steroid 21-hydroxylase) (Homo sapiens, UniProt P08686).
T2 sequence (P08686 whole entry): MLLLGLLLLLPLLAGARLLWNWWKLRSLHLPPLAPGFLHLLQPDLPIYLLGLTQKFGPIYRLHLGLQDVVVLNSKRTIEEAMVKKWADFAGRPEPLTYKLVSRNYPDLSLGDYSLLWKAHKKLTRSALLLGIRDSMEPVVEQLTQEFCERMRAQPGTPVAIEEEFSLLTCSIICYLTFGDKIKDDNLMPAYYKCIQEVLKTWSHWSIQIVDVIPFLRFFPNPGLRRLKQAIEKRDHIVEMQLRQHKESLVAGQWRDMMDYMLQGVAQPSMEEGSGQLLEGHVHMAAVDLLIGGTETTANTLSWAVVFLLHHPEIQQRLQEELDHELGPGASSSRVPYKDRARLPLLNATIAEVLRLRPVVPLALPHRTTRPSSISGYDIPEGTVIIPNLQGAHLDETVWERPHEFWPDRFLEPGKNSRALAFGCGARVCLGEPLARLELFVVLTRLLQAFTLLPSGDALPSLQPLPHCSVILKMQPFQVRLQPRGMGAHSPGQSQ
Nature of the data set: Inhibition of human CYP21 transfected in HEK293 cells assessed as decrease in conversion of progesterone to 11-deoxycorticosterone preincubated for 5 hrs followed by progesterone addition measured after 20 hrs by ELISA. It counts as cell-based. Also on record: concentration or dose not given beside the values. To be noted: HEK293 cells transfected with human CYP21, probe progesterone.

Data set [4] can be described thus: Half life in human liver microsomes at 1 uM by LC-MS/MS analysis. (Liver microsomes are a subcellular fraction often used to study metabolism.)

SMILES strings stand for the structures.

In the case of `Cc1cncc(C2=CC[C@H]3[C@@H]4CCC5=CC(=O)N(C)CC[C@]5(C)[C@H]4CC[C@]23C)c1`, the IC50 in data set [1] was no more than 11 nM. Also, in data set [2], the inhibition at 0.01 µM lay within 50 to 80%.
For the compound `C[C@]12CC[C@H]3[C@@H](CCC4=CC(=O)NCC[C@@]43C)C1=CC=C2c1cccnc1`, the concentration for half-maximal inhibition (IC50) in data set [1] is no more than 11 nM. Also, in data set [2], the inhibition at 0.01 µM was 50 to 80%.
Consider `C[C@]12CC[C@H]3[C@@H](CC[C@H]4CC(=O)NCC[C@@]43C)C1=CC=C2n1ccnn1`, for which, in data set [2], the inhibition at 0.01 µM was 1 to 50%.
For `C[C@]12CC[C@H]3[C@@H](CC[C@H]4CNC(=O)CC[C@@]43C)C1=CC=C2n1ccnc1`, the inhibition at 0.01 µM in data set [2] lay in the range of 50 to 80%.
As to `C[C@]12CC(O)C[C@@H]1CC[C@@H]1[C@@H]2CC[C@]2(C)C(n3ccnn3)=CC[C@@H]12` (stereo not given in full), the IC50 in data set [1] lay within 50 to 80 nM. Moreover, the inhibition at 0.01 µM in data set [2] is no more than 11%.
Turning to `C[C@]12CC(=O)C[C@@H]1CC[C@@H]1[C@@H]2CC[C@]2(C)C(n3ccnn3)=CC[C@@H]12`, in data set [2], the inhibition at 0.01 µM is 1 to 50%.
On to `C[C@]12CCCCC[C@@H]1CC[C@@H]1[C@@H]2CC[C@]2(C)C(c3cnccc3Cl)=CC[C@@H]12`, for which the inhibition at 0.01 µM in data set [2] lay in the range of 1 to 50%.
For the compound `CN1CC=C2CC[C@@H]3[C@H](CC[C@]4(C)C(c5cccnc5)=CC[C@@H]34)[C@@]2(C)CC1`, the IC50 in data set [1] was no more than 11 nM. In addition, the inhibition at 0.01 µM in data set [2] was in the range of 1 to 50%.
In the case of `CC(=O)O[C@H]1CC[C@@]2(C)[C@@H](CC[C@H]3C4=CC=C(c5cccnc5)[C@@]4(C)CC[C@@H]32)C1`, the inhibition at 0.01 µM in data set [2] is no less than 80%.
Still for that read-out and setting: the result for `C[C@]12CCCNC[C@@H]1CC[C@@H]1[C@@H]2CC[C@]2(C)C(n3ccnn3)=CC[C@@H]12` reads 1 to 50%.
The same measure, in the same setting: the result for `CCc1cncc(C2=CC[C@H]3[C@@H]4CCC5=CCN(C)CC[C@]5(C)[C@H]4CC[C@]23C)c1` reads 1 to 50%; that for `C[C@]12CCC(=O)NC[C@@H]1CC[C@@H]1[C@@H]2CC[C@]2(C)C(n3ccnc3)=CC[C@@H]12`, 50 to 80%.
With `COC1CC[C@@]2(C)[C@@H](CC[C@@H]3[C@@H]2CC[C@]2(C)C(n4ccnn4)=CC[C@@H]32)C1` (stereo not given in full), in data set [2], the inhibition at 0.01 µM lay within 1 to 50%.
The same measure, in the same setting: the result for `Cc1ccncc1C1=CC[C@H]2[C@@H]3CC[C@H]4CCCCC[C@]4(C)[C@H]3CC[C@]12C` reads 1 to 50%; that for `CCOc1cncc(C2=CC[C@H]3[C@@H]4CCC5N(C)C(=O)COC[C@]5(C)[C@H]4CC[C@]23C)c1` (stereo not given in full), 1 to 50%.
Same read-out and setting: the result for `C[C@]12CCCCC[C@@H]1CC[C@@H]1[C@@H]2CC[C@]2(C)C(c3cccnc3)=CC[C@@H]12` reads 1 to 50%.
Regarding `COc1cncc(C2=CC[C@H]3[C@@H]4CC=C5CCCC[C@]5(C)[C@H]4CC[C@]23C)c1`, in data set [2], the inhibition at 0.01 µM fell in the range of 50 to 80%.
`CCCOc1cncc(C2=CC[C@H]3[C@@H]4CCC5=CCN(C)CC[C@]5(C)[C@H]4CC[C@]23C)c1`: the inhibition at 0.01 µM in data set [2] is 1 to 50%.
In the case of `C[C@]12CC[C@H]3[C@@H](CC[C@H]4CNC(=O)CC[C@@]43C)C1=CC=C2c1cccnc1`, the inhibition at 0.01 µM in data set [2] lay within 50 to 80%.
`Cc1cncc(C2=CC[C@H]3[C@@H]4CCC5=CN(C)CCC[C@]5(C)[C@H]4CC[C@]23C)c1`: the inhibition at 0.01 µM in data set [2] was in the range of 1 to 50%.
As to `Cc1cncc(C2=CC[C@H]3[C@@H]4CC=C5CCCC[C@]5(C)[C@H]4CC[C@]23C)c1`, in data set [2], the inhibition at 0.01 µM is 50 to 80%.
The same measure, in the same setting: the result for `Cc1cncc(C2=CC[C@H]3[C@@H]4CCC5N(C)C(=O)COC[C@]5(C)[C@H]4CC[C@]23C)c1` (stereo not given in full) reads 1 to 50%; that for `CCc1cncc(C2=CC[C@H]3[C@@H]4CC=C5CCCC[C@]5(C)[C@H]4CC[C@]23C)c1`, 1 to 50%; that for `CCOc1cncc(C2=CC[C@H]3[C@@H]4CC[C@H]5CCOCC[C@]5(C)[C@H]4CC[C@]23C)c1`, 50 to 80%.
The same measure, in the same setting: the result for `COC1CC[C@@]2(C)[C@@H](CC[C@@H]3[C@@H]2CC[C@]2(C)C(c4cncc(C)c4)=CC[C@@H]32)C1` (stereo not given in full) reads 1 to 50%; that for `C[C@]12CC[C@H]3[C@@H](CC[C@H]4CNC(=O)CC[C@@]43C)C1=CC=C2n1ccnn1`, 1 to 50%.
Turning to `CN1CC[C@@]2(C)C(=CC1=O)CC[C@@H]1[C@@H]2CC[C@]2(C)C(n3cnc4ccccc43)=CC[C@@H]12`, the inhibition at 0.01 µM in data set [2] fell in the range of 1 to 50%.
Still for that read-out and setting: the result for `Cc1cncc(C2=CC[C@H]3[C@@H]4CC[C@H]5CCCCC[C@]5(C)[C@H]4CC[C@]23C)c1` reads 1 to 50%; that for `COC1CC[C@@]2(C)[C@@H](CC[C@@H]3[C@@H]2CC[C@]2(C)C(c4cccnc4)=CC[C@@H]32)C1` (stereo not given in full), 1 to 50%; that for `CCCOc1cncc(C2=CC[C@H]3[C@@H]4CCC5=CC(=O)N(C)CC[C@]5(C)[C@H]4CC[C@]23C)c1`, 50 to 80%.
With `Cc1cncc(C2=CC[C@H]3[C@@H]4CCN5CCCCC[C@]5(C)[C@H]4CC[C@]23C)c1`, in data set [2], the inhibition at 0.01 µM was in the range of 1 to 50%.
The same measure, in the same setting: the result for `C[C@]12CCNCC[C@@H]1CC[C@@H]1[C@@H]2CC[C@]2(C)C(n3ccnn3)=CC[C@@H]12` reads 1 to 50%; that for `COc1cncc(C2=CC[C@H]3[C@@H]4CC[C@H]5CCCCC[C@]5(C)[C@H]4CC[C@]23C)c1`, 50 to 80%; that for `CCc1cncc(C2=CC[C@H]3[C@@H]4CC[C@H]5CCCCC[C@]5(C)[C@H]4CC[C@]23C)c1`, 1 to 50%.
For the compound `C[C@]12CCNC(=O)C=C1CC[C@@H]1[C@@H]2CC[C@]2(C)C(n3cnc4ccccc43)=CC[C@@H]12`, the inhibition at 0.01 µM in data set [2] was 1 to 50%.
As for `COc1cncc(C2=CC[C@H]3[C@@H]4CCC5=CCN(C)CC[C@]5(C)[C@H]4CC[C@]23C)c1`, in data set [2], the inhibition at 0.01 µM lay within 1 to 50%.
Same read-out and setting: the result for `CCOc1cncc(C2=CC[C@H]3[C@@H]4CC[C@H]5CCCCC[C@]5(C)[C@H]4CC[C@]23C)c1` reads 1 to 50%.
As to `CCCC(=O)N[C@@H]1CC[C@@]2(C)C(=CC[C@@H]3[C@@H]2CC[C@]2(C)C(c4cccnc4)=CC[C@@H]32)C1`, the IC50 in data set [1] is no more than 11 nM. Also, in data set [3], the inhibition at 20 h was no less than 50%. Also, the half-life at 1 µM in data set [4] was 1 to 50 min.
For the compound `COc1cncc(C2=CC[C@H]3[C@@H]4CCN5CCCCC[C@]5(C)[C@H]4CC[C@]23C)c1`, the inhibition at 0.01 µM in data set [2] lay within 1 to 50%.
With `C[C@]12CC[C@H](O)CC1=CC[C@@H]1[C@@H]2CC[C@]2(C)C(c3cncc(N)c3)=CC[C@@H]12`, in data set [1], the IC50 was no more than 11 nM. Besides, the inhibition at 20 h in data set [3] was no less than 50%. The half-life at 1 µM in data set [4] was no less than 50 min.
As for `C[C@]12CCNC(=O)CC[C@@H]1CC[C@@H]1[C@@H]2CC[C@]2(C)C(c3cccnc3)=CC[C@@H]12`, the inhibition at 0.01 µM in data set [2] lay in the range of 50 to 80%.
Consider `C[C@]12CC[C@H](O)CC1=CC[C@@H]1[C@@H]2CC[C@]2(C)C(c3cccnc3F)=CC[C@@H]12`, for which the IC50 in data set [1] is no more than 11 nM. The inhibition at 20 h in data set [3] was no less than 50%. The compound further yielded a half-life at 1 µM in data set [4] of 1 to 50 min.
For the compound `C[C@]12CC[C@@H](NC(=O)C3CC3)CC1=CC[C@H]1C3CC=C(c4cccnc4)[C@@]3(C)CC[C@@H]12` (single isomer, unassigned), in data set [1], the IC50 was no more than 11 nM. The inhibition at 20 h in data set [3] was no less than 50%. The half-life at 1 µM in data set [4] was 1 to 50 min.
`C[C@]12CC[C@H]3[C@@H](CCN4CCCCC[C@]34C)[C@@H]1CC=C2c1cccnc1`: the inhibition at 0.01 µM in data set [2] was 1 to 50%.
On to `C[C@]12CCC(=O)NC[C@@H]1CC[C@@H]1[C@@H]2CC[C@]2(C)C(n3ccnn3)=CC[C@@H]12`, for which the inhibition at 0.01 µM in data set [2] is 1 to 50%.
`COc1cncc(C2=CC[C@H]3[C@@H]4CC=C5C[C@H](NC(=O)C6CC6)CC[C@]5(C)[C@H]4CC[C@]23C)c1`: in data set [1], the IC50 was no more than 11 nM. In addition, in data set [3], the inhibition at 20 h is no less than 50%. Moreover, in data set [4], the half-life at 1 µM lay in the range of 1 to 50 min.

The record behind these values is ChEMBL document CHEMBL3882724 (2013).
